Reference: PubChem BioAssay AID328 (DTP/NCI, 2004)
Where “and” joins values, the source holds several entries; their conditions need not be identical. Equal values may be shown once. Inconclusive results and toxic doses are left out.

Tested on: BDF1 mice, P388 leukemia ip, median survival T/C
Experiment: NCI In Vivo Anticancer Drug Screen. Data for tumor model P388 Leukemia (intraperitoneal) in B6D2F1 (BDF1) mice
Details: endpoint: median survival time, higher = longer survival
Summary of the method: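 Each value expresses how treatment altered survival: treated-mouse outcome over vehicle-mouse outcome, both groups bearing the transplanted tumour.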

[1] = dose: 100.0 mg/kg/injection, schedule: Q04DX003 (ip), vehicle: saline
[2] = dose: 200.0 mg/kg/injection, schedule: Q04DX003 (ip), vehicle: saline
[3] = dose: 50.0 mg/kg/injection, schedule: Q01DX009 (ip), vehicle: saline with Tween-80
[4] = dose: 100.0 mg/kg/injection, schedule: Q01DX009 (ip), vehicle: saline with Tween-80
[5] = dose: 200.0 mg/kg/injection, schedule: Q01DX009 (ip), vehicle: Klucel (hydroxypropylcellulose) (HPC)

With `CC1=NNC(=O)C1` the T/C (dose: 100.0 mg/kg/injection, schedule: Q01DX001 (ip), vehicle: saline sonified) was 100 % of control, the T/C (dose: 200.0 mg/kg/injection, schedule: Q01DX001 (ip), vehicle: saline sonified) was 100 % of control and the T/C (dose: 400.0 mg/kg/injection, schedule: Q01DX001 (ip), vehicle: saline sonified) was 105 % of control.

In the case of `CCOC(=O)c1nc2nc(Cl)c(Cl)nc2[nH]1`, the T/C (dose: 4.0 mg/kg/injection, schedule: Q01DX009 (ip), vehicle: saline) is reported as 90 % of control, the T/C (dose: 25.0 mg/kg/injection, schedule: Q04DX003 (ip), vehicle: saline) is reported as 93 % of control and the T/C (dose: 32.0 mg/kg/injection, schedule: Q01DX009 (ip), vehicle: saline) is reported as 89 % of control. For the same molecule, the T/C (dose: 50.0 mg/kg/injection, schedule: Q04DX003 (ip), vehicle: saline) was 98 % of control, the T/C [1] was 102 % of control and the T/C [2] was 93 % of control.

In the case of `O=[N+]([O-])c1cc([N+](=O)[O-])c2ccccc2c1NS(=O)(=O)c1ccc(Cl)c(Cl)c1`, the T/C [3] is reported as 92 % of control and the T/C [4] is reported as 111 % of control.

`CCSc1nc(Cl)cc(Sc2nc(N)nc3nc[nH]c23)n1` was tested, and the T/C (dose: 17.0 mg/kg/injection, schedule: Q01DX010 (ip), vehicle: acetone) was 113 % of control, the T/C (dose: 18.0 mg/kg/injection, schedule: Q01DX009 (ip), vehicle: Klucel (hydroxypropylcellulose) (HPC)) was 115 % of control and the T/C (dose: 26.0 mg/kg/injection, schedule: Q01DX010 (ip), vehicle: acetone) was 168 % of control. The T/C (dose: 40.0 mg/kg/injection, schedule: Q01DX010 (ip), vehicle: saline) was 150 % of control, the T/C (dose: 60.0 mg/kg/injection, schedule: Q01DX010 (ip), vehicle: saline) was 165 % of control and the T/C (dose: 132.0 mg/kg/injection, schedule: Q01DX010 (ip), vehicle: saline) was 110 % of control. The T/C [5] was 95 % of control and the T/C (dose: 200.0 mg/kg/injection, schedule: Q01DX010 (ip), vehicle: saline) was 90 % of control.

In the case of `CC(C)=CCC/C(C)=C\C=N\NS(=O)(=O)c1ccc([N+](=O)[O-])cc1`, the T/C (dose: 6.25 mg/kg/injection, schedule: Q01DX009 (ip), vehicle: saline with Tween-80) is reported as 99 % of control, the T/C (dose: 12.5 mg/kg/injection, schedule: Q01DX009 (ip), vehicle: saline with Tween-80) is reported as 103 % of control and the T/C (dose: 25.0 mg/kg/injection, schedule: Q01DX009 (ip), vehicle: saline with Tween-80) is reported as 103 % of control.

In the case of `CN1CCN=C1c1ccc(NC(=O)c2ccc(C(=O)Nc3ccc(C4=NCCN4C)cc3)c(N)c2)cc1`, the T/C (dose: 0.5 mg/kg/injection, schedule: Q01DX009 (ip), vehicle: saline with Tween-80) is reported as 150 % of control, the T/C (dose: 1.0 mg/kg/injection, schedule: Q01DX009 (ip), vehicle: saline with Tween-80) is reported as 154 % of control and the T/C (dose: 2.0 mg/kg/injection, schedule: Q01DX009 (ip), vehicle: saline with Tween-80) is reported as 181 % of control. The T/C (dose: 2.0 mg/kg/injection, schedule: Q01DX009 (ip), vehicle: saline) was 154 % of control and the T/C (dose: 3.0 mg/kg/injection, schedule: Q01DX009 (ip), vehicle: saline) was 166 % of control.

For `COC(=O)Cc1[nH]ccc1C(=O)OC`, the T/C (dose: 100.0 mg/kg/injection, schedule: Q01DX001 (ip), vehicle: saline with Tween-80) was 103 % of control, the T/C (dose: 200.0 mg/kg/injection, schedule: Q01DX001 (ip), vehicle: saline with Tween-80) was 109 % of control and the T/C (dose: 400.0 mg/kg/injection, schedule: Q01DX001 (ip), vehicle: saline with Tween-80) was 120 % of control.

For `Cc1sc([N+](=O)[O-])cc1[N+](=O)[O-]`, the T/C (dose: 25.0 mg/kg/injection, schedule: Q04DX003 (ip), vehicle: Klucel (hydroxypropylcellulose) (HPC)) was 91 % of control, the T/C (dose: 50.0 mg/kg/injection, schedule: Q04DX003 (ip), vehicle: Klucel (hydroxypropylcellulose) (HPC)) was 95 % of control and the T/C (dose: 100.0 mg/kg/injection, schedule: Q04DX003 (ip), vehicle: Klucel (hydroxypropylcellulose) (HPC)) was 91 % of control.

`CCOC(=S)SCC(=O)Nc1ccc(Cl)cc1` was tested, and the T/C (dose: 75.0 mg/kg/injection, schedule: Q01DX009 (ip), vehicle: saline with Tween-80) was 110 % of control, the T/C (dose: 150.0 mg/kg/injection, schedule: Q01DX009 (ip), vehicle: saline with Tween-80) was 89 % of control and the T/C (dose: 300.0 mg/kg/injection, schedule: Q01DX009 (ip), vehicle: saline with Tween-80) was 89 % of control.

In the case of `Cc1cc(C(C)(C)CC(C)(C)C)cc(O)c1O`, the T/C (dose: 100.0 mg/kg/injection, schedule: Q04DX003 (ip), vehicle: other) is reported as 113 % of control, the T/C (dose: 200.0 mg/kg/injection, schedule: Q04DX003 (ip), vehicle: other) is reported as 109 % of control and the T/C (dose: 400.0 mg/kg/injection, schedule: Q04DX003 (ip), vehicle: other) is reported as 100 % of control.

In the case of `C/C=C1/C(=O)O[C@]23C=C[C@@H]4C(C(=O)OC)=CO[C@H](O[C@@H]12)[C@@H]43`, the T/C (dose: 0.27 mg/kg/injection, schedule: Q01DX009 (ip), vehicle: saline) is reported as 110 % of control, the T/C (dose: 0.55 mg/kg/injection, schedule: Q01DX009 (ip), vehicle: saline) is reported as 110 % of control and the T/C (dose: 1.1 mg/kg/injection, schedule: Q01DX009 (ip), vehicle: saline) is reported as 110 % of control. The T/C (dose: 2.2 mg/kg/injection, schedule: Q01DX009 (ip), vehicle: saline) was 110 % of control, the T/C (dose: 165.0 micrograms/kg/injection, schedule: Q01DX009 (ip), vehicle: Klucel (hydroxypropylcellulose) (HPC)) was 115 % of control and the T/C (dose: 310.0 micrograms/kg/injection, schedule: Q01DX009 (ip), vehicle: Klucel (hydroxypropylcellulose) (HPC)) was 115 % of control. For the same molecule, the T/C (dose: 1250.0 micrograms/kg/injection, schedule: Q01DX009 (ip), vehicle: Klucel (hydroxypropylcellulose) (HPC)) was 115 % of control.

With `CCn1c(Cl)c(/C=N/Nc2ccc([N+](=O)[O-])cc2[N+](=O)[O-])c2ccccc21` the T/C (dose: 100.0 mg/kg/injection, schedule: Q04DX002 (ip), vehicle: Klucel (hydroxypropylcellulose) (HPC)) was 92 % of control, the T/C (dose: 200.0 mg/kg/injection, schedule: Q04DX002 (ip), vehicle: Klucel (hydroxypropylcellulose) (HPC)) was 92 % of control and the T/C (dose: 400.0 mg/kg/injection, schedule: Q04DX002 (ip), vehicle: Klucel (hydroxypropylcellulose) (HPC)) was 88 % of control.

With `C1CCNCC1.O=C([CH-]C(=O)C(F)(F)F)c1ccc2c(c1)C(=O)c1ccccc1-2.O=C([CH-]C(=O)C(F)(F)F)c1ccc2c(c1)C(=O)c1ccccc1-2.O=C([CH-]C(=O)C(F)(F)F)c1ccc2c(c1)C(=O)c1ccccc1-2.O=C([CH-]C(=O)C(F)(F)F)c1ccc2c(c1)C(=O)c1ccccc1-2.[Eu+3]` the T/C (dose: 100.0 mg/kg/injection, schedule: Q01DX009 (ip), vehicle: Klucel (hydroxypropylcellulose) (HPC)) was 102 % of control and the T/C [5] was 102 % of control.

With `Cn1c(=O)[nH]cc([N+](=O)[O-])c1=O` the T/C [3] was 104 % of control, the T/C [4] was 105 % of control and the T/C (dose: 200.0 mg/kg/injection, schedule: Q01DX009 (ip), vehicle: saline with Tween-80) was 98 % of control.

In the case of `CNC(=S)NN`, the T/C [1] is reported as 100 % of control, the T/C (dose: 200.0 mg/kg/injection, schedule: Q01DX001 (ip), vehicle: saline) is reported as 100 % of control and the T/C [2] is reported as 90 % of control. For the same molecule, the T/C (dose: 400.0 mg/kg/injection, schedule: Q04DX003 (ip), vehicle: saline) was 100 % of control.

With `CCN(CC)CCCC(C)Nc1c2ccc(Cl)cc2nc2ccc(OC)cc12` (stereo not drawn) the T/C (dose: 9.37 mg/kg/injection, schedule: Q01DX009 (ip), vehicle: saline) was 86 % of control, the T/C (dose: 18.75 mg/kg/injection, schedule: Q01DX009 (ip), vehicle: saline) was 90 % of control and the T/C (dose: 37.5 mg/kg/injection, schedule: Q01DX009 (ip), vehicle: saline) was 100 % of control and 109 % of control. The T/C (dose: 75.0 mg/kg/injection, schedule: Q01DX009 (ip), vehicle: saline) was 118 % of control and 120 % of control, the T/C (dose: 75.0 mg/kg/injection, schedule: Q04DX003 (ip), vehicle: saline) was 104 % of control and the T/C (dose: 99.0 mg/kg/injection, schedule: Q04DX003 (ip), vehicle: saline) was 150 % of control. For the same molecule, the T/C (dose: 150.0 mg/kg/injection, schedule: Q04DX003 (ip), vehicle: saline) was 172 % of control.

With `O=C(O)c1ccccc1CBr` the T/C (dose: 100.0 mg/kg/injection, schedule: Q04DX003 (ip), vehicle: saline sonified) was 104 % of control, the T/C (dose: 200.0 mg/kg/injection, schedule: Q04DX003 (ip), vehicle: saline sonified) was 104 % of control and the T/C (dose: 400.0 mg/kg/injection, schedule: Q04DX003 (ip), vehicle: saline sonified) was 100 % of control.
